Reference: patent US20220217999A1, “METHOD FOR PROTECTING PROTEIN FROM HEAT DAMAGE AND REDUCING RUMEN DEGRADABILITY OF METHIONINE” (AJINOMOTO CO., INC., priority 2019, published 2022)
Read-outs that look alike come from different tables or passages of the source.

Settings: for 16 hr. RUP, % of CP / Calculated IAP (intestinally available protein), g/100 g distillers grains / RUP digestibility, g/100 g RUP / RUP, % of DG Protein / Undigested CP, % of CP / Undigested CP, % of feed DM: 0.5 h 128° C. autoclave
Description: Using a sample of wet distillers grains (“DG”) was obtained from a commercial ethanol plant, treatments were applied in duplicates. The DG was treated with the three levels of DL-methionine shown in Table 1 and heated in an autoclave for 0.5 hour at 128° C. Following heat treatment, samples were dried in a forced oven set at 40° C. Dried samples were composited within treatment and analyzed for RUP and undigested total tract protein using a standard method.

## CSCCC(N)C(=O)O (racemic) [DL-Methionine]
1.0 wt. % DL-Methionine added to distillers grains
  16 hr. RUP, % of CP: 69.2 % of CP
1.0 wt. % DL-Methionine
  Calculated IAP (intestinally available protein), g/100 g distillers grains: 15.7 g/100 g distillers grains
  RUP digestibility, g/100 g RUP: 72.1 g/100 g RUP
  RUP, % of DG Protein: 72.8 % of DG Protein
  Undigested CP, % of CP: 19.3 % of CP
  Undigested CP, % of feed DM: 6.02 % of feed DM
1.5 wt. % DL-Methionine added to distillers grains
  16 hr. RUP, % of CP: 71.2 % of CP
1.5 wt. % DL-Methionine
  Calculated IAP (intestinally available protein), g/100 g distillers grains: 15.2 g/100 g distillers grains
  RUP digestibility, g/100 g RUP: 67.8 g/100 g RUP
  RUP, % of DG Protein: 74.8 % of DG Protein
  Undigested CP, % of CP: 22.9 % of CP
  Undigested CP, % of feed DM: 7.08 % of feed DM
2% DL-methionine
  calculated digestibility of RUP, higher compared with Control: 13.9%
2% DL-methionine sample
  total metabolically available protein, higher compared with Control: 17%
2.0 wt. % DL-Methionine added to distillers grains
  16 hr. RUP, % of CP: 67.2 % of CP
2.0 wt. % DL-Methionine
  Calculated IAP (intestinally available protein), g/100 g distillers grains: 16.0 g/100 g distillers grains
  RUP digestibility, g/100 g RUP: 72.7 g/100 g RUP
  RUP, % of DG Protein: 73.3 % of DG Protein
  Undigested CP, % of CP: 18.3 % of CP
  Undigested CP, % of feed DM: 5.85 % of feed DM
Highest level of DL-methionine
  total un-digested protein, lower compared with Control: 28%
